The test system of one assay is Spleen cells from BDF1 female mice. Kind of assay: Mitogenesis Assay for Immunosuppressive Activity (concanavalin A-stimulated spleen cells, 3H-thymidine uptake). The format is cell-based. The note with it: BDF1 mouse spleen cells, Concanavalin A 5 μg/ml, 72 hours. Here is the method: Spleen cells from BDF1 female mice were established in RPMI with 10% fetal calf serum at 5×10^6 /mL. […] Concanavalin A (5μ g/ml)was added as the mitogenic stimulus, and the final volume in the microtiter wells was adjusted to 200μ L with RPMI. Cell cultures were incubated for 72 hours at 37° C. in a 5% CO2 atmosphere and pulsed with 0.5μ Ci ^3 H-thymidine (specific activity […]) for the last 18 hours of the 72 hour culture. The cells were harvested on an automated multiple sample harvester and cell-associated radioactivity counted in a Beckman liquid scintillation counter. The results are expressed as the mean values derived from quadruplicate measurements. Cell viability was determined by trypan blue exclusion after 72 hours of incubation. Compounds to be tested were added to the microtiter plates at the appropriate dilutions prior to the addition of cells.
By IC50 is commonly meant the point on the concentration scale where inhibition reaches its midpoint. High values mean lower potency, low ones higher potency. The molecule `CO[C@H]1C[C@@H]2CC[C@@H](C)[C@@](O)(O2)C(O)C(=O)N2CCCC[C@H]2C(=O)O[C@H]([C@H](C)C[C@@H]2CC[C@@H](O)[C@H](OC)C2)CC(=O)[C@H](C)/C=C(\C)[C@@H](O)[C@@H](OC)C(O)[C@H](C)C[C@H](C)/C=C/C=C/C=C/1C` (single isomer, unassigned) [Ex. 2, isomer 2, 14,30-Bisdihydrorapamycin] yielded a half-inhibitory concentration (IC50) of 1 to 10 nM.
Still for that read-out and setting: the same measure for `CO[C@H]1C[C@@H]2CC[C@@H](C)[C@@](O)(O2)C(=O)C(=O)N2CCCC[C@H]2C(=O)O[C@H]([C@H](C)C[C@@H]2CC[C@@H](O)[C@H](OC)C2)CC(=O)[C@H](C)/C=C(\C)[C@@H](O)[C@@H](OC)C(O)[C@H](C)C[C@H](C)/C=C/C=C/C=C/1C` (single isomer, unassigned) [Ex. 4, isomer 1, 30-Dihydro-rapamycins]: 2 nM; for `CO[C@H]1C[C@@H]2CC[C@@H](C)[C@@](O)(O2)C(=O)C(=O)N2CCCC[C@H]2C(=O)O[C@H]([C@H](C)C[C@@H]2CC[C@@H](O)[C@H](OC)C2)CC(=O)[C@H](C)/C=C(\C)[C@@H](O)[C@@H](OC)C(O)[C@H](C)C[C@H](C)/C=C/C=C/C=C/1C` (single isomer, unassigned) [Ex. 4, isomer 2, 30-Dihydro-rapamycins]: 0.1 to 1 nM.

The same assay, now with this note: Mus musculus, Concanavalin A 5 μg/ml, 72 hours.
`CO[C@H]1C[C@@H]2CC[C@@H](C)[C@@](O)(O2)C(O)C(=O)N2CCCC[C@H]2C(=O)O[C@H]([C@H](C)C[C@@H]2CC[C@@H](O)[C@H](OC)C2)CC(=O)[C@H](C)/C=C(\C)[C@@H](O)[C@@H](OC)C(O)[C@H](C)C[C@H](C)/C=C/C=C/C=C/1C` (single isomer, unassigned) [Ex. 2, isomer 1, 14,30-Bisdihydrorapamycin]: the IC50 fell in the range of 1 to 10 nM.
Same read-out and setting: the same measure for `CO[C@H]1C[C@@H]2CC[C@@H](C)[C@@](OC)(O2)C(O)C(=O)N2CCCC[C@H]2C(=O)O[C@H]([C@H](C)C[C@@H]2CC[C@@H](O)[C@H](OC)C2)CC(=O)[C@H](C)/C=C(\C)[C@@H](O)[C@@H](OC)C(O)[C@H](C)C[C@H](C)/C=C/C=C/C=C/1C` (single isomer, unassigned) [Ex. 3, major isomer, 14,30-Bisdihydro-13-O-methylrapamycins]: 100 to 1000 nM; for `CO[C@H]1C[C@@H]2CC[C@@H](C)[C@@](O)(O2)C(O)C(=O)N2CCCC[C@H]2C(=O)O[C@H]([C@H](C)C[C@@H]2CC[C@@H](O)[C@H](OC)C2)CC(=O)[C@H](C)/C=C(\C)[C@@H](O)[C@@H](OC)C(=O)[C@H](C)C[C@H](C)/C=C/C=C/C=C/1C` (single isomer, unassigned; isomer 14) [Ex. 1, major isomer, 14-Dihydrorapamycin]: 10 nM; for `CO[C@H]1C[C@@H]2CC[C@@H](C)[C@@](O)(O2)C(=O)C(=O)N2CCCC[C@H]2C(=O)O[C@H]([C@H](C)C[C@@H]2CC[C@@H](O)[C@H](OC)C2)CC(=O)[C@H](C)/C=C(\C)[C@H]2OC(C)(C)OC([C@H](C)C[C@H](C)/C=C/C=C/C=C/1C)[C@@H]2OC` [Ex. 5, 30-Dihydro-Rapamycin-28, 30-Acetonide]: 100 to 1000 nM.
On the same count and under the same terms, the same measure for `CO[C@H]1[C@@H](O)[C@H](C)C[C@H](C)/C=C/C=C/C=C(\C)[C@@H](OC)C[C@@H]2CC[C@@H](C)[C@](O)(CC(=O)N3CCCC[C@H]3C(=O)O[C@H]([C@H](C)C[C@@H]3CC[C@@H](O)[C@H](OC)C3)CC(=O)[C@H](C)/C=C(\C)[C@H]1O)O2` [Ex. 6, 14-Desoxo-30 (S) -dihydro-rapamycin]: above 1000 nM.

Values taken from patent USRE37421E, “Rapamycin derivatives” (SmithKline Beecham Corporation, priority 1999, dated 2001).
